Earlier results, collected in patent US20140147496A1, “COMPOSITION AND METHOD FOR FERTILITY THERAPY USING NUTRITIONAL SUPPLEMENTS” (FAIRHAVEN HEALTH, LLC, priority 2009, published 2014).
One block for each compound: values may come before it.

What was measured:
infertile patients [1] = details: 60 mg, mean 103 days, 17 infertile patients
[2] = test system: idiopathic asthenozoospermic infertile patients; details: after administration
[3] = test system: Infertile men with idiopathic asthenozoospermia; details: oral
infertile patients [4] = details: 2 g/day, two month cross-over, excluding outliers
[5] = test system: patients with idiopathic asthenospermia; details: 3 g/d
[6] = test system: patients with idiopathic asthenospermia; details: between baseline, 12 week, or 24 weeks
[7] = test system: Patients with inflammatory abacterial prostatovesiculoepididymitis (PVE); details: following a 3-month washout period

Coenzyme Q10 in seminal plasma and in sperm cells [2]: significant increase
Coenzyme Q10 levels in seminal plasma and in sperm cells ([3]; after 6 months of therapy): increased significantly
Compound: COC1=C(OC)C(=O)C(C/C=C(\C)CC/C=C(\C)CC/C=C(\C)CC/C=C(\C)CC/C=C(\C)CC/C=C(\C)CC/C=C(\C)CC/C=C(\C)CC/C=C(\C)CCC=C(C)C)=C(C)C1=O [Coenzyme Q10]
motility after incubation (sperm samples; samples with initial normal motility, 5 μM or 50 μM, 24 h): no significant change
motility (sperm samples; sperm samples from 22 asthenospermic men, in vitro, 50 μM): significant increases in motility
standard sperm parameters (infertile patients [1]): no significant changes
fertilization rate (infertile patients [1]; p<0.05): significant improvement
sperm motility [2]: improvement in sperm motility
sperm cell motility ([3]; after 6 months, computer-assisted analysis): significant increase

Compound: C[N+](C)(C)C[C@H](O)CC(=O)[O-] [L-carnitine]
semen quality over placebo (concentration, total and forward motility) (infertile patients [4]): statistically significant improvement

Compound: CC(=O)O[C@H](CC(=O)[O-])C[N+](C)(C)C [LAC, L-acetyl-carnitine]
sperm cell motility [5]: increased

Compound: C[N+](C)(C)CC(O)CC(=O)[O-] (stereo not shown) [carnitine]
motility or total motile sperm counts [6]: no significant differences
production of reactive oxygen species [7]: highest reduction
sperm motility and viability [7]: increased
